From the supplement of paper PMC10307832

What was measured:
Assay in all cases: relative viability (nuclei count vs DMSO), 5 days (fraction); higher = more cells survive
NCI-H1437 = conditions: first compound 4 µM
Method in brief: (§1)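 Dosing by pin tool came one day after lung cancer cell lines were seeded in 1536-well plates, using either one drug or a fixed anchor-drug dose plus five library-drug doses (not always all listed) in √10 steps. After 5 days, nuclei were counted on 4× images. Relative viability is treated-well nuclei count divided by vehicle-well nuclei count, and values are medians of duplicate plates.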

NCI-H1650 = system: NCI-H1650
Method in brief: as §1

NCI-H1793 = system: NCI-H1793
Method in brief: as §1

NCI-H2023 = system: NCI-H2023
Method in brief: as §1

NCI-H2087 = system: NCI-H2087
Method in brief: as §1

NCI-H2228 = system: NCI-H2228
Method in brief: as §1

NCI-H2405 = system: NCI-H2405
Method in brief: as §1

NCI-H3122 = system: NCI-H3122
Method in brief: as §1

NCI-H322M = system: NCI-H322M
Method in brief: as §1

NCI-H647 = system: NCI-H647
Method in brief: as §1

NCI-H727 = system: NCI-H727
Method in brief: as §1

RERF-LC-KJ = system: RERF-LC-KJ
Method in brief: as §1

SK-LU-1 = system: SK-LU-1
Method in brief: as §1

Q: `Clc1ccc(Nc2nnc(Cc3ccncc3)c3ccccc23)cc1` [Vatalanib] + CCNC(=O)c1noc(-c2cc(C(C)C)c(O)cc2O)c1-c1ccc(CN2CCOCC2)cc1 [Luminespib] (partner 0.01 µM) was tested. Which relative viability (NCI-H1437) did it give?
A: 1.14

Q: And the relative viability (NCI-H1650; first compound 0.04 µM)?
A: 0.21

Q: And the relative viability (NCI-H1650; first compound 0.1265 µM)?
A: 0.193

Q: And the relative viability (NCI-H1650; first compound 0.4 µM)?
A: 0.206

Q: And the relative viability (NCI-H1650; first compound 1.265 µM)?
A: 0.203

Q: What about the relative viability (NCI-H1650; first compound 4 µM) of the same compound?
A: 0.208

Q: And the relative viability (NCI-H1793; first compound 0.04 µM)?
A: 0.156

Q: What about the relative viability (NCI-H1793; first compound 0.1265 µM) of the same compound?
A: 0.19

Q: What about the relative viability (NCI-H1793; first compound 0.4 µM) of the same compound?
A: 0.192

Q: And the relative viability (NCI-H1793; first compound 1.265 µM)?
A: 0.166

Q: And the relative viability (NCI-H1793; first compound 4 µM)?
A: 0.2

Q: And the relative viability (NCI-H2023; first compound 0.04 µM)?
A: 0.58

Q: What about the relative viability (NCI-H2023; first compound 0.1265 µM) of the same compound?
A: 0.66

Q: And the relative viability (NCI-H2023; first compound 0.4 µM)?
A: 0.762

Q: What about the relative viability (NCI-H2023; first compound 1.265 µM) of the same compound?
A: 0.537

Q: And the relative viability (NCI-H2023; first compound 4 µM)?
A: 0.688

Q: What about the relative viability (NCI-H2087; first compound 0.04 µM) of the same compound?
A: 0.152

Q: What about the relative viability (NCI-H2087; first compound 0.1265 µM) of the same compound?
A: 0.157

Q: What about the relative viability (NCI-H2087; first compound 0.4 µM) of the same compound?
A: 0.184

Q: What about the relative viability (NCI-H2087; first compound 1.265 µM) of the same compound?
A: 0.173

Q: And the relative viability (NCI-H2087; first compound 4 µM)?
A: 0.159

Q: And the relative viability (NCI-H2228; first compound 0.04 µM)?
A: 0.145

Q: What about the relative viability (NCI-H2228; first compound 0.1265 µM) of the same compound?
A: 0.102

Q: What about the relative viability (NCI-H2228; first compound 0.4 µM) of the same compound?
A: 0.163

Q: And the relative viability (NCI-H2228; first compound 1.265 µM)?
A: 0.115

Q: What about the relative viability (NCI-H2228; first compound 4 µM) of the same compound?
A: 0.157

Q: And the relative viability (NCI-H2405; first compound 0.04 µM)?
A: 0.753

Q: What about the relative viability (NCI-H2405; first compound 0.1265 µM) of the same compound?
A: 0.775

Q: What about the relative viability (NCI-H2405; first compound 1.265 µM) of the same compound?
A: 0.594

Q: And the relative viability (NCI-H2405; first compound 4 µM)?
A: 0.717

Q: And the relative viability (NCI-H3122; first compound 0.04 µM)?
A: 0.0962

Q: And the relative viability (NCI-H3122; first compound 0.1265 µM)?
A: 0.0894

Q: And the relative viability (NCI-H3122; first compound 0.4 µM)?
A: 0.0775

Q: And the relative viability (NCI-H3122; first compound 1.265 µM)?
A: 0.0975

Q: What about the relative viability (NCI-H3122; first compound 4 µM) of the same compound?
A: 0.0766

Q: And the relative viability (NCI-H322M; first compound 0.04 µM)?
A: 0.849

Q: And the relative viability (NCI-H322M; first compound 0.1265 µM)?
A: 0.798

Q: What about the relative viability (NCI-H322M; first compound 0.4 µM) of the same compound?
A: 0.877

Q: And the relative viability (NCI-H322M; first compound 1.265 µM)?
A: 0.793

Q: What about the relative viability (NCI-H322M; first compound 4 µM) of the same compound?
A: 0.909

Q: What about the relative viability (NCI-H647; first compound 0.04 µM) of the same compound?
A: 0.128

Q: What about the relative viability (NCI-H647; first compound 0.1265 µM) of the same compound?
A: 0.0977

Q: What about the relative viability (NCI-H647; first compound 0.4 µM) of the same compound?
A: 0.169

Q: What about the relative viability (NCI-H647; first compound 1.265 µM) of the same compound?
A: 0.187

Q: What about the relative viability (NCI-H647; first compound 4 µM) of the same compound?
A: 0.138

Q: And the relative viability (NCI-H727; first compound 0.04 µM)?
A: 0.339

Q: And the relative viability (NCI-H727; first compound 0.1265 µM)?
A: 0.289

Q: And the relative viability (NCI-H727; first compound 0.4 µM)?
A: 0.329

Q: And the relative viability (NCI-H727; first compound 1.265 µM)?
A: 0.635

Q: What about the relative viability (NCI-H727; first compound 4 µM) of the same compound?
A: 0.392

Q: And the relative viability (RERF-LC-KJ; first compound 0.04 µM)?
A: 1.17

Q: What about the relative viability (RERF-LC-KJ; first compound 0.1265 µM) of the same compound?
A: 1.22

Q: And the relative viability (RERF-LC-KJ; first compound 0.4 µM)?
A: 1.2

Q: And the relative viability (RERF-LC-KJ; first compound 1.265 µM)?
A: 1.05

Q: And the relative viability (RERF-LC-KJ; first compound 4 µM)?
A: 1.07

Q: And the relative viability (SK-LU-1; first compound 0.04 µM)?
A: 0.21

Q: And the relative viability (SK-LU-1; first compound 0.1265 µM)?
A: 0.197

Q: And the relative viability (SK-LU-1; first compound 0.4 µM)?
A: 0.241

Q: What about the relative viability (SK-LU-1; first compound 1.265 µM) of the same compound?
A: 0.218

Q: What about the relative viability (SK-LU-1; first compound 4 µM) of the same compound?
A: 0.232
